Laboratory results taken from PMC11631053, “A receptor-based assay to study the sweet and bitter tastes of sweeteners and binary sweet blends: the SWEET project” (Chemical Senses, 2024).
Marks after values point to notes of the source that are not given here.

What was measured:
[1] = sucrose = 1; ref Schiffman and Gatlin (1993); cited from earlier work
TAS1R2/TAS1R3 = target: T1, TAS1R2/TAS1R3 (Homo sapiens, UniProt Q7RTX0+Q8TE23); assay: Calcium mobilization assay, HEK293T-Gα16gust44 cells expressing the sweet taste receptor; details: sweet compound alone
T1 sequence (Q8TE23 20-839): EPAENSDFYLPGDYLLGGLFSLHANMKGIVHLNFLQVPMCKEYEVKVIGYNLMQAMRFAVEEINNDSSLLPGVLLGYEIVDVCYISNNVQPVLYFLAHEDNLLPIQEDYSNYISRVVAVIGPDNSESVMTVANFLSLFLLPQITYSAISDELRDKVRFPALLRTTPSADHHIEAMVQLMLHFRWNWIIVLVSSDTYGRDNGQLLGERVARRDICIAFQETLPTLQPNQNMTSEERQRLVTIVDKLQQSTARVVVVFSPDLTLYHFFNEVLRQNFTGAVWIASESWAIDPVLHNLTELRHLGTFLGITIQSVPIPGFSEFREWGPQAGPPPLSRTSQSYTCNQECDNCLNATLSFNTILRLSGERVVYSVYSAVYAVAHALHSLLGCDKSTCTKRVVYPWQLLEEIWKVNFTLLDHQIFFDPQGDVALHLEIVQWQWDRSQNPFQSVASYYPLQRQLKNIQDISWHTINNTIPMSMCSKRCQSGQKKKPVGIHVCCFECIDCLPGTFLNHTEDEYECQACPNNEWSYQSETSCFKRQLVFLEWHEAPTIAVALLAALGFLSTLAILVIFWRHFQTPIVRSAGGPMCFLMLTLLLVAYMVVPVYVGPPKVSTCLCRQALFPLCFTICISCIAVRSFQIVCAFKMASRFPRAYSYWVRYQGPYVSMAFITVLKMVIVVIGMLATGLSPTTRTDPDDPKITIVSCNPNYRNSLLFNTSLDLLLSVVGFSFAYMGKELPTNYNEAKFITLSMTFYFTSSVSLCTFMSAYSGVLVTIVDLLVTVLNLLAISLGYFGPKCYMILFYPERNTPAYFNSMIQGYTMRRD
T1 sequence (Q7RTX0 21-852): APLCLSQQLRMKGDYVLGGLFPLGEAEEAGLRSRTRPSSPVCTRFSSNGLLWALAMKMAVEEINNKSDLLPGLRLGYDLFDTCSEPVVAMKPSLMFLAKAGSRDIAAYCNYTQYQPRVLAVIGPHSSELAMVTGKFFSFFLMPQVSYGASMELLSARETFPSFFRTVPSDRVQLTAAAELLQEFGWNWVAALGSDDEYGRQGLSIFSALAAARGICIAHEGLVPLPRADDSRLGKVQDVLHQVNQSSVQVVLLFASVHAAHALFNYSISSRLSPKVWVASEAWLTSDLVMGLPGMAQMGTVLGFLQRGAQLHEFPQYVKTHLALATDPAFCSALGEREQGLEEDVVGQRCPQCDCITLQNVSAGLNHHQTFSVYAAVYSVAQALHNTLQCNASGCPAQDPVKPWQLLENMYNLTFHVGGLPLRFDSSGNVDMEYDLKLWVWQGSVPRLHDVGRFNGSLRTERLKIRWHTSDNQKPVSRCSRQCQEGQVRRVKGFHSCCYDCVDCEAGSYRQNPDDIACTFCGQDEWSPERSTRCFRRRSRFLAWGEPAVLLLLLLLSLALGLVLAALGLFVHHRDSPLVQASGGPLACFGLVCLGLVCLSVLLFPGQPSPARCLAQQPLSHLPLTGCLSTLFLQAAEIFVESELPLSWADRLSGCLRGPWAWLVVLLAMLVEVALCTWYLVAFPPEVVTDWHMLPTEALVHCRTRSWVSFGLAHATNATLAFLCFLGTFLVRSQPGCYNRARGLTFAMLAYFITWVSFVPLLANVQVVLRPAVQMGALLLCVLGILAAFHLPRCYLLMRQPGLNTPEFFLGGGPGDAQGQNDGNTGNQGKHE
Description: Different concentration ranges were tested depending on the injected sweet compound. […] All of the concentration-receptor combinations were measured in triplicate, and each experiment was repeated at least 3 times. The Ca^2+ change was expressed as a fractional change in fluorescent light intensity: ΔF/F = (F − F0)/F0, where F was the fluorescent light intensity at each point, and F0 was the value of fluorescent light emitted prior to stimulus application. To calculate dose–response relationships, the changes in fluorescence upon stimulus application were averaged, mock-subtracted and baseline-corrected. The resulting obtained dose–response data were adjusted by using a 4-parameter logistic equation.

TAS2R8 = details: ref Meyerhof et al. 2010; cited from earlier work
TAS2R1 = details: ref Meyerhof et al. 2010; cited from earlier work

Molecule: OC[C@H]1O[C@@](CO)(O[C@H]2O[C@H](CO)[C@@H](O)[C@H](O)[C@H]2O)[C@@H](O)[C@@H]1O [Sucrose, reference compound]
- Sweetness potency [1]: 1^g
- Max ΔF/F0 (TAS1R2/TAS1R3; maximal signal amplitude): 0.10 ± 0.03

Molecule: O=S(=O)(O)NC1CCCCC1 [cyclamate]
- concentration at which activation of TAS2R8 occurs (TAS2R8): approximately 30 mM
- concentration at which activation of TAS2R1 occurs (TAS2R1): approximately 30 mM

B1: thaumatin (protein)
chain: ATFEIVNRCSYTVWAAASKGDAALDAGGRQLNSGESWTINVEPGTNGGKIWARTDCYFDDSGSGICKTGDCGGLLRCKRFGRPPTTLAEFSLNQYGKDYIDISNIKGFNVPMDFSPTTRGCRGVRCAADIVGQCPAKLKAPGGGCNDACTVFQTSEYCCTTGKCGPTEYSRFFKRLCPDAFSYVLDKPTTVTCPGSSNYRVTFCPTA
modifications: 8 disulfide bonds; natural (E957) thaumatin is a mixture of mainly thaumatin I and II
- EC50 (TAS1R2/TAS1R3; read-out: EC50 value): 12 ± 2 µM
